Data: US6362328B1, “Assays and probes with enzyme labels” (London Biotechnology Limited, priority 1996, dated 2002)

How the values were obtained:
[1] = target: T1, nuclease P1 (Penicillium citrinum, UniProt P24289); conditions: phosphate 0 to 10 mM; nuclease P1 at pH 6.5, alkaline phosphatase at pH 8.9; FIG. 2
T1 sequence (P24289 1-270): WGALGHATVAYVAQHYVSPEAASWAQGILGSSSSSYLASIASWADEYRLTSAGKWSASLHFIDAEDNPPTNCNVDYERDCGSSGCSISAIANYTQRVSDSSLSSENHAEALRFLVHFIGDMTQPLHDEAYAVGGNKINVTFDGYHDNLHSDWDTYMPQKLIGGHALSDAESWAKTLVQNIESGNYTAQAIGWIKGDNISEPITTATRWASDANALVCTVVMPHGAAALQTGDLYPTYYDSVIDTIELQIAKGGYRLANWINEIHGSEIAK
Protocol: A solution of nuclease P1 standardized according to Example 1 was serially diluted in 50 mM citrate buffer adjusted to pH 6.5 with NaOH. The assay mixture contained 20 μM 3′FADP, 0.1 mM 4-aminoantipyrine, 2 mM DHSA, 1 μg horseradish peroxidase, 0.1 M glucose and 0.1 μM apoglucose oxidase in a total volume of 0.1 ml. The change in absorbance was monitored at 520 nm in a Dynatech MR7000 plate reader fitted with a thermostatically controlled plate holder set to 25° C.

[2] = tested on: endogenous "FADPase" in the apoglucose oxidase; assay: Effect of p-nitrophenyl phosphate on background color generation in the absence of nuclease P1; format: biochemical; conditions: p-nitrophenyl phosphate at concentrations up to approximately 5 mM; no nuclease P1; FIG. 3
Protocol: (§1) The effect of the added p-nitrophenyl phosphate on the background color generation in the absence of nuclease P1 was also noted. This background is due to endogenous “FADPase” in the apoglucose oxidase used in the assay. At concentrations up to approximately 5 mM, added p-nitrophenyl phosphate has no effect on nuclease P1, but reduces the background signal by 80-100% (FIG. 3).

[3] = target: T1, nuclease P1; assay: Effect of p-nitrophenyl phosphate on the activity of nuclease P1; format: biochemical; design: purchased Sigma Chemical Company; conditions: p-nitrophenyl phosphate at concentrations up to approximately 5 mM; FIG. 3
Protocol: as §1

[4] = Standardization of nuclease P1 (coupled NADH assay, absorbance at 340 nm); format: biochemical; conditions: 22.7 μM solution (1 mg in 1 ml water); 50 mM HEPES pH 7.2; molar extinction coefficient of 6220 for NADH assumed
Protocol: Nuclease P1 (1 mg; obtained from Sigma Chemical Company, batch no: 107F0799) was dissolved in 1 ml of water to give a concentration of 22.7 μM and stored at 4° C. The activity of this solution was assayed in the following mixture: 0.16 mM NADH, 1 mM ATP, 1 mM PEP, 1 mM MgSO4, 20 mM KCl, 0.5 mM adenosine 3′,5′-bisphosphate, 1 U pyruvate kinase, 1 U lactate dehydrogenase and 1 U myokinase in 50 mM HEPES buffer, pH 7.2, in a total volume of 1 ml.

Molecule: phosphate
- effect of phosphate on enzyme activity [1]: less of an effect on nuclease P1 than on alkaline phosphatase

Molecule: O=[N+]([O-])c1ccc(OP(=O)(O)O)cc1 [p-nitrophenyl phosphate]
- reduction of background signal [2]: 80-100%
- effect on nuclease P1 activity [3]: no effect

B1: Nuclease P1: enzyme obtained from Sigma Chemical Company, used as enzyme label (protein, UniProt P24289 1-270, looked up)
Nuclease P1: WGALGHATVAYVAQHYVSPEAASWAQGILGSSSSSYLASIASWADEYRLTSAGKWSASLHFIDAEDNPPTNCNVDYERDCGSSGCSISAIANYTQRVSDSSLSSENHAEALRFLVHFIGDMTQPLHDEAYAVGGNKINVTFDGYHDNLHSDWDTYMPQKLIGGHALSDAESWAKTLVQNIESGNYTAQAIGWIKGDNISEPITTATRWASDANALVCTVVMPHGAAALQTGDLYPTYYDSVIDTIELQIAKGGYRLANWINEIHGSEIAK
- activity of nuclease P1 solution [4]: 320 U/ml
